Test results as given in US20230085307A1, “PYRIDAZINONE COMPOUND AND HERBICIDE” (NISSAN CHEMICAL CORPORATION, priority 2019, published 2023).

What was measured:
oval-leafed pondweed [1] = assay: Test Example 2: herbicidal activity, application during weed generation under submerged conditions (Table 17, symbol C); type: in vivo, oval-leafed pondweed (Monochoria vaginalis); settings: for herbicidal effect rating, C: oval-leafed pondweed: AAH 320 g/ha, application during weed generation, submerged conditions
Outline: (§1)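 Wagner pot, alluvial soil, 4 cm flood; mixed sowing of all species; greenhouse 25° C.–30° C. Emulsifiable formulation, water-diluted to predetermined dose, applied to paddy water at 1–2 leaf stage. Effect rated at 3 wk using the earlier test's scoring criteria.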

Japanese bulrush [2] = assay: Test Example 2: herbicidal activity, application during weed generation under submerged conditions (Table 17, symbol B); type: in vivo, Japanese bulrush (Schoenoplectus juncoides); settings: for herbicidal effect rating, B: Japanese bulrush: AAH 320 g/ha, application during weed generation, submerged conditions
Outline: as §1

Chinese sprangletop = assay: Test Example 3: herbicidal effect by foliage application, Wagner pot (Table 18, symbol D); type: in vivo, chinese sprangletop (Leptochloa chinensis); settings: for herbicidal effect on D (Chinese sprangletop), rating 0-5: 320 g/ha
Outline: (§2)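 Plants were sown in alluvial soil held under 0.1–0.5 cm standing water and grown 14 days in a greenhouse at 25–30 °C. An emulsifiable formulation, water-diluted to the set dose, was then sprayed onto the foliage, and effects were scored three weeks later using previously defined criteria.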

late watergrass [3] = assay: Test Example 1: herbicidal activity, application before weed generation under submerged conditions (Table 16, symbol A); type: in vivo, late watergrass (Echinochloa oryzicola); settings: for Herbicidal effect on A: late watergrass (grade 0-5): 320 g/ha applied herbicide
Outline: (§3)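 Submerged Wagner pots (alluvial soil, 4 cm water) sown with weed seeds and planted with 2.5-leaf rice seedlings; emulsifiable concentrate diluted in water applied to water surface on sowing day. Held in greenhouse at 25-30 °C; injury scored 0-5 by herbicidal rate after three weeks.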

late watergrass [4] = assay: Test Example 2: herbicidal activity, application during weed generation under submerged conditions (Table 17, symbol A); type: in vivo, late watergrass (Echinochloa oryzicola); settings: for herbicidal effect rating, A: late watergrass: AAH 320 g/ha, application during weed generation, submerged conditions
Outline: as §1

oval-leafed pondweed [5] = assay: Test Example 1: herbicidal activity, application before weed generation under submerged conditions (Table 16, symbol C); type: in vivo, oval-leafed pondweed (Monochoria vaginalis); settings: for Herbicidal effect on C: oval-leafed pondweed (grade 0-5): 320 g/ha applied herbicide
Outline: as §3

barnyard grass = assay: Test Example 3: herbicidal effect by foliage application, Wagner pot (Table 18, symbol H); type: in vivo, barnyard grass (Echinochloa crus-galli); settings: for herbicidal effect on H (barnyard grass), rating 0-5: 320 g/ha
Outline: as §2

Japanese bulrush [6] = assay: Test Example 1: herbicidal activity, application before weed generation under submerged conditions (Table 16, symbol B); type: in vivo, Japanese bulrush (Schoenoplectus juncoides); settings: for Herbicidal effect on B: Japanese bulrush (grade 0-5): 320 g/ha applied herbicide
Outline: as §3

rice flat sedge = assay: Test Example 3: herbicidal effect by foliage application, Wagner pot (Table 18, symbol E); type: in vivo, rice flat sedge (Cyperus iria); settings: for herbicidal effect on E (rice flat sedge), rating 0-5: 320 g/ha
Outline: as §2

[7] = amount of applied herbicide 320 g/ha
[8] = application during weed generation under submerged conditions, amount of applied herbicide 320 g/ha

| Compound | herbicidal effect rating, C: oval-leafed pondweed (oval-leafed pondweed [1]) | herbicidal effect rating, B: Japanese bulrush (Japanese bulrush [2]) | herbicidal effect on D (Chinese sprangletop), rating 0-5 (Chinese sprangletop) | Herbicidal effect on A: late watergrass (grade 0-5) (late watergrass [3]) | herbicidal effect rating, A: late watergrass (late watergrass [4]) | Herbicidal effect on C: oval-leafed pondweed (grade 0-5) (oval-leafed pondweed [5]) | herbicidal effect on H (barnyard grass), rating 0-5 (barnyard grass) | Herbicidal effect on B: Japanese bulrush (grade 0-5) (Japanese bulrush [6]) | herbicidal effect on E (rice flat sedge), rating 0-5 (rice flat sedge) | herbicidal effect on D: Chinese sprangletop (Chinese sprangletop; [7]) | herbicidal effect on H: barnyard grass (barnyard grass; [7]) | herbicidal effect on E: rice flat sedge (rice flat sedge; [7]) | other results |
| --- | --- | --- | --- | --- | --- | --- | --- | --- | --- | --- | --- | --- | --- |
| C=C(C)CCOc1ccc(-c2sc3ccccc3c2-c2c(O)c(C)nn(C)c2=O)cc1 [1-210] | 4 (Herbicidal rate of 70% or more and less than 90%) | 3 (Herbicidal rate of 40% or more and less than 70%) | 5 (Herbicidal rate of 90% or more (almost completely withered)) | 5 (Herbicidal rate of 90% or more (almost completely withered)) | 3 (Herbicidal rate of 40% or more and less than 70%) | 5 (Herbicidal rate of 90% or more (almost completely withered)) | 5 (Herbicidal rate of 90% or more (almost completely withered)) | 5 (Herbicidal rate of 90% or more (almost completely withered)) | 4 (Herbicidal rate of 70% or more and less than 90%) | – | – | – | – |
| CSCCCOc1ccc(-c2sc3ccccc3c2-c2c(O)c(C)nn(C)c2=O)cc1 [1-222] | 4 (Herbicidal rate of 70% or more and less than 90%) | 3 (Herbicidal rate of 40% or more and less than 70%) | 5 (Herbicidal rate of 90% or more (almost completely withered)) | 5 (Herbicidal rate of 90% or more (almost completely withered)) | 5 (Herbicidal rate of 90% or more (almost completely withered)) | 4 (Herbicidal rate of 70% or more and less than 90%) | 5 (Herbicidal rate of 90% or more (almost completely withered)) | 4 (Herbicidal rate of 70% or more and less than 90%) | 4 (Herbicidal rate of 70% or more and less than 90%) | – | – | – | – |
| Cc1nn(C)c(=O)c(-c2c(-c3ccc(OCCOC(C)C)cc3)sc3ccccc23)c1O [1-226] | 3 (Herbicidal rate of 40% or more and less than 70%) | 3 (Herbicidal rate of 40% or more and less than 70%) | 5 (Herbicidal rate of 90% or more (almost completely withered)) | 5 (Herbicidal rate of 90% or more (almost completely withered)) | 5 (Herbicidal rate of 90% or more (almost completely withered)) | 4 (Herbicidal rate of 70% or more and less than 90%) | 5 (Herbicidal rate of 90% or more (almost completely withered)) | 4 (Herbicidal rate of 70% or more and less than 90%) | 4 (Herbicidal rate of 70% or more and less than 90%) | – | – | – | – |
| Cc1nn(C)c(=O)c(-c2c(-c3ccc(CS(C)(=O)=O)cc3)sc3ccc(F)cc23)c1O [2-334] | 0 (Herbicidal rate of 5% or less (almost no effect)) | 0 (Herbicidal rate of 5% or less (almost no effect)) | – | 3 (Herbicidal rate of 40% or more and less than 70%) | 3 (Herbicidal rate of 40% or more and less than 70%) | 0 (Herbicidal rate of 5% or less (almost no effect)) | – | 0 (Herbicidal rate of 5% or less (almost no effect)) | – | 4 (Herbicidal rate of 70% or more and less than 90%) | 5 (Herbicidal rate of 90% or more (almost completely withered)) | 5 (Herbicidal rate of 90% or more (almost completely withered)) | – |
| CCCC(=O)Oc1c(C)nn(C)c(=O)c1-c1c(-c2ccc(C(F)(F)F)cc2Cl)sc2ccc(F)cc12 [2-357] | 0 (Herbicidal rate of 5% or less (almost no effect)) | 0 (Herbicidal rate of 5% or less (almost no effect)) | – | 4 (Herbicidal rate of 70% or more and less than 90%) | 2 (Herbicidal rate of 20% or more and less than 40%) | 0 (Herbicidal rate of 5% or less (almost no effect)) | – | 2 (Herbicidal rate of 20% or more and less than 40%) | – | 3 (Herbicidal rate of 40% or more and less than 70%) | 5 (Herbicidal rate of 90% or more (almost completely withered)) | 2 (Herbicidal rate of 20% or more and less than 40%) | – |
| COc1cc(OC)cc(-c2sc3ccc(F)cc3c2-c2c(O)c(C)nn(C)c2=O)c1 [2-360] | 0 (Herbicidal rate of 5% or less (almost no effect)) | 0 (Herbicidal rate of 5% or less (almost no effect)) | – | 3 (Herbicidal rate of 40% or more and less than 70%) | 2 (Herbicidal rate of 20% or more and less than 40%) | 0 (Herbicidal rate of 5% or less (almost no effect)) | – | 2 (Herbicidal rate of 20% or more and less than 40%) | – | 4 (Herbicidal rate of 70% or more and less than 90%) | 5 (Herbicidal rate of 90% or more (almost completely withered)) | 3 (Herbicidal rate of 40% or more and less than 70%) | – |
| CCCC(=O)Oc1c(C)nn(C)c(=O)c1-c1c(-c2ccc(OCCOC)cc2)oc2ccc(C)cc12 [9-064] | – | – | – | – | – | – | – | – | – | – | – | – | herbicidal effect grade, C: oval-leafed pondweed (oval-leafed pondweed [1]; [8]): 4 (Herbicidal rate of 70% or more and less than 90%); herbicidal effect grade, B: Japanese bulrush (Japanese bulrush [2]; [8]): 3 (Herbicidal rate of 40% or more and less than 70%); Herbicidal effect on D (Chinese sprangletop), foliage application (Chinese sprangletop; [7]): 1 (Herbicidal rate of 5% or more and less than 20%); Herbicidal effect, A: late watergrass (late watergrass [3]; [7]): 5 (Herbicidal rate of 90% or more (almost completely withered)); herbicidal effect grade, A: late watergrass (late watergrass [4]; [8]): 4 (Herbicidal rate of 70% or more and less than 90%); Herbicidal effect, C: oval-leafed pondweed (oval-leafed pondweed [5]; [7]): 5 (Herbicidal rate of 90% or more (almost completely withered)); Herbicidal effect on H (barnyard grass), foliage application (barnyard grass; [7]): 5 (Herbicidal rate of 90% or more (almost completely withered)); Herbicidal effect, B: Japanese bulrush (Japanese bulrush [6]; [7]): 5 (Herbicidal rate of 90% or more (almost completely withered)); Herbicidal effect on E (rice flat sedge), foliage application (rice flat sedge; [7]): 5 (Herbicidal rate of 90% or more (almost completely withered)) |
